Tests used:
[1] = target: T1, human serotonin 5-HT2A receptor (Homo sapiens, UniProt P28223); test: Radioligand binding ([3H]-ketanserin) to membranes of HEK-293 EBNA cells expressing human 5-HT2A receptor; conditions: 1.1 nM [3H]-ketanserin, HEK-293 EBNA membranes, 1 h at RT
T1 construct: expressed in transfected cells; host or cells: HEK-293 EBNA cells, transient transfection; membrane preparation
Procedure, shortened: (§1)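 Membranes from HEK-293 EBNA cells transiently transfected with the receptor were incubated 1 h at RT with ten test concentrations (10 μM–0.1 nM) and ~0.7 nM [3H]-spiperone (D2), 0.5 nM [3H]-spiperone (D3) or 1.1 nM [3H]-ketanserin (5-HT2A). Nonspecific binding was set with 10 μM spiperone, bound radioactivity was read by filtration and scintillation, and Ki was taken from IC50 via Cheng-Prusoff.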

[2] = target: T2, human dopamine D3 receptor (Homo sapiens, UniProt P35462); test: Radioligand binding ([3H]-spiperone) to membranes of HEK-293 EBNA cells expressing human D3 receptor; conditions: human D3, 0.5 nM [3H]-spiperone, HEK-293 EBNA membranes, 1 h at RT
T2 construct: expressed in transfected cells; host or cells: HEK-293 EBNA cells, transient transfection; membrane preparation
Procedure, shortened: as §1

[3] = target: T3, human dopamine D2 receptor (Homo sapiens, UniProt P14416); test: Radioligand binding ([3H]-spiperone) to membranes of HEK-293 EBNA cells expressing human D2 receptor; conditions: human D2, 0.7 nM [3H]-spiperone, HEK-293 EBNA membranes, 1 h at RT
T3 construct: expressed in transfected cells; host or cells: HEK-293 EBNA cells, transient transfection; membrane preparation
Procedure, shortened: as §1

T3 sequence (P14416 whole entry): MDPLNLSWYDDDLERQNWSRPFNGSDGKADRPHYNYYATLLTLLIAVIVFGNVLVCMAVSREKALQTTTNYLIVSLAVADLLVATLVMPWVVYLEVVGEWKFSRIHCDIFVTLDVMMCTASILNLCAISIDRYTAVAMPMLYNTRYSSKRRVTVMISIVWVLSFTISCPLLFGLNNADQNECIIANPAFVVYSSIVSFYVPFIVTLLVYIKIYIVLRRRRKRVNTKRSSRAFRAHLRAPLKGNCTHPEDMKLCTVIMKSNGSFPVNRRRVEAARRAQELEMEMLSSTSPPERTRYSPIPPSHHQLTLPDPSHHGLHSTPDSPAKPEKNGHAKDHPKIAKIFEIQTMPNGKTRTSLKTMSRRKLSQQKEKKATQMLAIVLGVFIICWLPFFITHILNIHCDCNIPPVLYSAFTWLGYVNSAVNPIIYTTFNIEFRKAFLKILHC
T1 sequence (P28223 whole entry): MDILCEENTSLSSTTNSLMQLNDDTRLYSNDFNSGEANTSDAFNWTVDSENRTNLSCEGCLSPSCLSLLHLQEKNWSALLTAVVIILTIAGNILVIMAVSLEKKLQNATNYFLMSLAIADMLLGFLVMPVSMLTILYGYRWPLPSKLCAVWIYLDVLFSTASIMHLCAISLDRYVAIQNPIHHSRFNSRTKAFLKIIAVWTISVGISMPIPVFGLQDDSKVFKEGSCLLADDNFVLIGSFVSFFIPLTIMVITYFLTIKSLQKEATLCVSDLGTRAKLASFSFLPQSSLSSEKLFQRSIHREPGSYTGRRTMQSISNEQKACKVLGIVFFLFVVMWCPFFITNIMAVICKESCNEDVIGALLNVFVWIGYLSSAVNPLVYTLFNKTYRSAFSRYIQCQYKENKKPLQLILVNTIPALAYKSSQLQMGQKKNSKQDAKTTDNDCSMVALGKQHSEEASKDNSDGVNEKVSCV
T2 sequence (P35462 whole entry): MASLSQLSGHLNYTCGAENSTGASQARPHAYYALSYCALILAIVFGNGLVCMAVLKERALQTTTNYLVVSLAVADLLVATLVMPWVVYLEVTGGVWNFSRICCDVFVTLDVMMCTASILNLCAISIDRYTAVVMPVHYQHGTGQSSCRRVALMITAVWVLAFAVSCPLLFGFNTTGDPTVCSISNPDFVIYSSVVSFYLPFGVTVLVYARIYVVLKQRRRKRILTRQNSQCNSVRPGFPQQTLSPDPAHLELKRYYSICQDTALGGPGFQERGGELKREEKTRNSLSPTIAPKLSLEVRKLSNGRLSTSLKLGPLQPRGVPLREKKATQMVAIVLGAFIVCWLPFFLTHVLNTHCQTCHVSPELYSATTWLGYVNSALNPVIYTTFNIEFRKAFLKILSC

`COC[C@H]1C[C@H](CC(=O)N[C@H]2CC[C@H](CCN3CCN(c4noc5cc(Cl)ccc45)CC3)CC2)C1` [Example 48, N-trans-(4-{2-[4-(6-Chloro-benzo[d]isoxazol-3-yl)-piperazin-1-yl]-ethyl}-cyclohexyl)-2-trans-(3-methoxymethyl-cyclobutyl)-acetamide] was tested, and the Ki [1] was 3.77 nM, the Ki [2] was 9.96 nM and the Ki [3] was 706 nM.

For `O=C(C[C@H]1CCCCO1)N[C@H]1CC[C@H](CCN2CCN(c3noc4cc(Cl)ccc34)CC2)CC1` [Example 49, N-trans-(4-{2-[4-(6-Chloro-benzo[d]isoxazol-3-yl)-piperazin-1-yl]-ethyl}-cyclohexyl)-2-(R)-tetrahydro-pyran-2-yl-acetamide], the Ki [1] was 8.48 nM, the Ki [2] was 20.6 nM and the Ki [3] was 1020 nM.

`O=C(C[C@@H]1CCCCO1)N[C@H]1CC[C@H](CCN2CCN(c3noc4cc(Cl)ccc34)CC2)CC1` [Example 50, N-trans-(4-{2-[4-(6-Chloro-benzo[d]isoxazol-3-yl)-piperazin-1-yl]-ethyl}-cyclohexyl)-2-(S)-tetrahydro-pyran-2-yl-acetamide] was tested, and the Ki [1] was 4.78 nM, the Ki [2] was 23.7 nM and the Ki [3] was 1160 nM.

Compound `O=C(CC1CC1)N[C@H]1CC[C@H](CCN2CCN(c3noc4cc(Cl)ccc34)CC2)CC1` [Example 52, N-trans-(4-{2-[4-(6-Chloro-benzo[d]isoxazol-3-yl)-piperazin-1-yl]-ethyl}-cyclohexyl)-2-cyclopropyl-acetamide] has a Ki [1] of 5.07 nM, a Ki [2] of 3.84 nM and a Ki [3] of 315 nM.

With `O=C(CC(F)(F)F)N[C@H]1CC[C@H](CCN2CCN(c3noc4cc(Cl)ccc34)CC2)CC1` [Example 53, N-trans-(4-{2-[4-(6-Chloro-benzo[d]isoxazol-3-yl)-piperazin-1-yl]-ethyl}-cyclohexyl)-3,3,3-trifluoro-propionamide] the Ki [1] was 5.14 nM, the Ki [2] was 2.74 nM and the Ki [3] was 172 nM.

Compound `CO[C@H]1CC[C@H](C(=O)N[C@H]2CC[C@H](CCN3CCN(c4noc5cc(Cl)ccc45)CC3)CC2)CC1` [Example 54, 4-trans-Methoxy-cyclohexanecarboxylic acid N-trans-(4-{2-[4-(6-chloro-benzo[d]isoxazol-3-yl)-piperazin-1-yl]-ethyl}-cyclohexyl)-amide] has a Ki [1] of 8.3 nM, a Ki [2] of 50.2 nM and a Ki [3] of 3850 nM.

Compound `COC(CC(=O)N[C@H]1CC[C@H](CCN2CCN(c3noc4cc(Cl)ccc34)CC2)CC1)OC` [Example 55, N-trans-(4-{2-[4-(6-Chloro-benzo[d]isoxazol-3-yl)-piperazin-1-yl]-ethyl}-cyclohexyl)-3,3-dimethoxy-propionamide] has a Ki [1] of 7.6 nM, a Ki [2] of 6.16 nM and a Ki [3] of 396 nM.

Work on `CC(=O)N[C@H]1CC[C@H](CCN2CCN(c3noc4cc(F)c(F)cc34)CC2)CC1` [Example 56, N-trans-(4-{2-[4-(5,6-Difluoro-benzo[d]isoxazol-3-yl)-piperazin-1-yl]-ethyl}-cyclohexyl)-acetamide] yielded a Ki [1] of 12 nM, a Ki [2] of 5.83 nM and a Ki [3] of 380 nM.

In the case of `COCCC(=O)N[C@H]1CC[C@H](CCN2CCN(c3noc4cc(F)c(F)cc34)CC2)CC1` [Example 57, N-trans-(4-{2-[4-(5,6-Difluoro-benzo[d]isoxazol-3-yl)-piperazin-1-yl]-ethyl}-cyclohexyl)-3-methoxy-propionamide], the Ki [1] is reported as 13.1 nM, the Ki [2] is reported as 6.18 nM and the Ki [3] is reported as 396 nM.

For `CO[C@H]1CC[C@H](CC(=O)N[C@H]2CC[C@H](CCN3CCN(c4noc5cc(F)c(F)cc45)CC3)CC2)CC1` [Example 58, N-trans-(4-{2-[4-(5,6-Difluoro-benzo[d]isoxazol-3-yl)-piperazin-1-yl]-ethyl}-cyclohexyl)-2-trans-(4-methoxy-cyclohexyl)-acetamide], the Ki [1] was 7.59 nM, the Ki [2] was 14.4 nM and the Ki [3] was 11300 nM.

Compound `CCC(=O)N[C@H]1CC[C@H](CCN2CCN(c3noc4cc(F)c(F)cc34)CC2)CC1` [Example 59, N-trans-(4-{2-[4-(5,6-Difluoro-benzo[d]isoxazol-3-yl)-piperazin-1-yl]-ethyl}-cyclohexyl)-propionamide] has a Ki [1] of 14.8 nM, a Ki [2] of 9.88 nM and a Ki [3] of 389 nM.

`COCC(=O)N[C@H]1CC[C@H](CCN2CCN(c3noc4cc(F)c(F)cc34)CC2)CC1` [Example 60, N-trans-(4-{2-[4-(5,6-Difluoro-benzo[d]isoxazol-3-yl)-piperazin-1-yl]-ethyl}-cyclohexyl)-2-methoxy-acetamide] was tested, and the Ki [1] was 9.5 nM, the Ki [2] was 20.4 nM and the Ki [3] was 878 nM.

Work on `O=C(CC1(O)CCOCC1)N[C@H]1CC[C@H](CCN2CCN(c3noc4cc(F)c(F)cc34)CC2)CC1` [Example 61, N-trans-(4-{2-[4-(5,6-Difluoro-benzo[d]isoxazol-3-yl)-piperazin-1-yl]-ethyl}-cyclohexyl)-2-(4-hydroxy-tetrahydro-pyran-4-yl)-acetamide] yielded a Ki [1] of 8.45 nM, a Ki [2] of 10.1 nM and a Ki [3] of 811 nM.

Compound `COC1(CC(=O)N[C@H]2CC[C@H](CCN3CCN(c4noc5cc(F)c(F)cc45)CC3)CC2)CCOCC1` [Example 62, N-trans-(4-{2-[4-(5,6-Difluoro-benzo[d]isoxazol-3-yl)-piperazin-1-yl]-ethyl}-cyclohexyl)-2-(4-methoxy-tetrahydro-pyran-4-yl)-acetamide] has a Ki [1] of 9.92 nM, a Ki [2] of 13.4 nM and a Ki [3] of 352 nM.

`O=C(CC1CCOCC1)N[C@H]1CC[C@H](CCN2CCN(c3noc4cc(F)c(F)cc34)CC2)CC1` [Example 63, N-trans-(4-{2-[4-(5,6-Difluoro-benzo[d]isoxazol-3-yl)-piperazin-1-yl]-ethyl}-cyclohexyl)-2-(tetrahydro-pyran-4-yl)-acetamide] gave a Ki [1] of 6.88 nM, a Ki [2] of 7.13 nM and a Ki [3] of 9710 nM.

`CC(C)(O)CC(=O)N[C@H]1CC[C@H](CCN2CCN(c3noc4cc(F)c(F)cc34)CC2)CC1` [Example 64, N-trans-(4-{2-[4-(5,6-Difluoro-benzo[d]isoxazol-3-yl)-piperazin-1-yl]-ethyl}-cyclohexyl)-3-hydroxy-3-methyl-butyramide] showed a Ki [1] of 11.8 nM, a Ki [2] of 10.1 nM and a Ki [3] of 598 nM.

`COC1CCC(C(=O)N[C@H]2CC[C@H](CCN3CCN(c4noc5cc(F)c(F)cc45)CC3)CC2)CC1` (stereo partly drawn) [Example 66, 4-Methoxy-cyclohexanecarboxylic acid N-trans(4-{2-[4-(5,6-difluoro-benzo[d]isoxazol-3-yl)-piperazin-1-yl]-ethyl}-cyclohexyl)-amide] gave a Ki [1] of 6.94 nM, a Ki [2] of 26.3 nM and a Ki [3] of 2930 nM.

In the case of `O=C(N[C@H]1CC[C@H](CCN2CCN(c3noc4cc(F)c(F)cc34)CC2)CC1)C1CCOCC1` [Example 67, Tetrahydro-pyran-4-carboxylic acid N-trans-(4-{2-[4-(5,6-difluoro-benzo[d]isoxazol-3-yl)-piperazin-1-yl]-ethyl}-cyclohexyl)-amide], the Ki [1] is reported as 7.72 nM, the Ki [2] is reported as 30 nM and the Ki [3] is reported as 2670 nM.

`CCS(=O)(=O)N[C@H]1CC[C@H](CCN2CCN(c3noc4cc(F)c(F)cc34)CC2)CC1` [Example 68, Ethanesulfonic acid N-trans-(4-{2-[4-(5,6-difluoro-benzo[d]isoxazol-3-yl)-piperazin-1-yl]-ethyl}-cyclohexyl)-amide] was tested, and the Ki [1] was 17.8 nM, the Ki [2] was 16.4 nM and the Ki [3] was 641 nM.

`O=C(CC1OCCCO1)N[C@H]1CC[C@H](CCN2CCN(c3noc4cc(F)c(F)cc34)CC2)CC1` [Example 69, N-trans-(4-{2-[4-(5,6-Difluoro-benzo[d]isoxazol-3-yl)-piperazin-1-yl]-ethyl}-cyclohexyl)-2-[1,3]dioxan-2-yl-acetamide] was tested, and the Ki [1] was 6.33 nM, the Ki [2] was 13.1 nM and the Ki [3] was 862 nM.

— patent publication US7858630B2, “D3 and 5-HT2A receptor modulators” (Hoffmann-La Roche Inc., priority 2008, dated 2010)
